Consider four compounds from US8445190B2, “Method of inhibiting biomaterial-induced procoagulant activity using complement inhibitors” (The Trustees of the University of Pennsylvania, priority 2008, dated 2013).

The test system of test [1] is TF-dependent procoagulant activity of PMN culture supernatants. In words: mPT of PMN supernatants after incubation with serum preincubated with polysulfone hemodialysis filter fibers. Type of test: cell-based, human. The settings on record: for mPT: FIG. 5C. As for the experimental part: (§1) FIG. 5: Hemodialysis filter fibers induce in vitro TF dependent procoagulant properties in both ESRD and healthy serum through complement activation. […] C3b generation was detected by […]. CVF-activated plasma was used as a standard for 100% complement activation. The percentage of complement activation is depicted in the diagram. B: Serum from healthy donors was preincubated with hollow fibers from polysulfone hemodialysis filters at different time periods (10, 30, 60 & 120 min). PMNs were incubated with the pretreated serum and their supernatants were assayed for TF with mPT. A time-dependent procoagulant activity was observed (bar 2: 28.06±0.21, 3: 27.32±0.39, 4: 25.65±0.78, 5: 24.67±0.47, p<0.01 compared to bar 1: 31.81±0.28), which was blocked by the addition of anti-TF mAb in supernatants showing the highest procoagulant effect (bar 6: 31.49±0.12, p<0.05 compared to bar 5). C: Predialysis ESRD serum preincubated for 60 min with filter fibers, induced stronger procoagulant activity in PMN culture supernatants compared to when healthy serum was used (bars 3: 25.65±0.78, 6: 20.06±0.35, p<0.01 compared to bars 1: 33.12±0.25, 2: 29.07±0.33, respectively). Inhibitions with compstatin or C5aR antagonist, in both pre-treated sera, elucidated that the observed TF-dependent procoagulant activity was complement mediated (bars 4: 29.60±0.57, 5: 29.15±0.49 & 7: 26.85±0.21, 8: 26.05±0.35, p<0.01 compared to bars 3 and 6, respectively).
Complement and anaphylatoxin inhibition studies. I) Compstatin, a 13-residue cyclic peptide (Ac-I[CVWQDWGAHRTC]TNH2) that inhibits the cleavage of native C3 by the C3 convertase, was used as a specific inhibitor of complement activation at the C3 level. […]
At the end of the incubation period, supernatants of cells were collected by centrifugation at 800 g for 10 min and were checked a second time to confirm the absence of cells and platelets. The coagulation activity properties (TF/FVIIa binding activity) of the cell supernatants were determined using a modified prothrombin time (mPT) assay. […]

For test [2] the test system is unchanged. In words: modified prothrombin time (mPT) of supernatants of healthy PMNs incubated with ESRD hemodialysis serum. The test is classed as cell-based, human. As to conditions: for mPT values: FIG. 4A; for effect on procoagulant activity (mPT) induced by ESRD serum in PMN supernatants: in words, FIG. 1A / FIG. 4A. From the text: (§2) Complement and anaphylatoxin inhibition studies. I) Compstatin, a 13-residue cyclic peptide (Ac-I[CVWQDWGAHRTC]TNH2) that inhibits the cleavage of native C3 by the C3 convertase, was used as a specific inhibitor of complement activation at the C3 level. In certain studies, a compstatin analog (1-methyl tryptophan as the 4th residue) was used. […] II) SB-290152, a selective nonpeptide antagonist of the complement anaphylatoxin receptor C3aR, was used in this study to dissect the involvement of C3aR signalling in the generation of neutrophil derived TF [27]. III) To block C5aR stimulation on neutrophils, a small cyclic hexapeptide (AcF-[OPdChaWR]) that acts as a selective C5aR antagonist was used. Sera were pre-incubated for 30 min with Compstatin or its linear analogue (15 μM final concentration), before incubation with leukocytes. Furthermore, serum for stimulation was added to leukocytes that had been pre-incubated for 30 min with C3aRa or C5aRa (5-10 μM final concentration). Approximately […] washed cells from healthy donors were used for the subsequent incubations, The final volume was adjusted with PBS at 250 μl and the leukocytes were incubated for 90-120 min at 37° C.
Modified prothrombin time (mPT) assay to examine TF mediated coagulation activity in cell supernatants, complement inhibition and anaphylatoxin receptor studies. Since it has been shown previously that TF dependent procoagulant activity in leukocyte culture supernatants is altered after C5a/C5aR stimulation or blockade, the mPT method was used in order to estimate primarily the kinetics of TF induction. The presence of TF in supernatants is probably due to the presence of the soluble, spliced TF isoform or TF microparticles.
At the end of the incubation period, supernatants of cells were collected by centrifugation at 800 g for 10 min and were checked a second time to confirm the absence of cells and platelets. The coagulation activity properties (TF/FVIIa binding activity) of the cell supernatants were determined using a modified prothrombin time (mPT) assay. Briefly, after performing the “classic” PT test (100 μl platelet poor plasma [PPP] plus 200 μl thromboplastin ISI 1.7 (Instrumentation Laboratory, Milan, Italy), the modified PT analysis was carried out. Namely, 125 μl of cell supernatant and 75 μl thromboplastin were added to 100 μl of PPP to measure the changes of PT. As control of mPT, 125 μl of PBS was used instead of cell supernatant and the in vitro clotting time usually ranged from 31 to 34 sec.
To verify that the thromboplastic activity was due to TF alone, supernatants were incubated for 30 min with a specific neutralizing anti-TF monoclonal antibody (mAb, No 4509, American Diagnostica, Greenwich, Conn., USA), 10 μg/ml, at room temperature. PT was then measured by the mPT method. Non-specific controls involved incubation with the same subclass and concentration of mouse anti-human antibodies, as well as with different secondary antibodies.
Serum of ESRD patients exerts procoagulant activity through TF induction and follows a time dependent manner during the hemodialysis course. […] The procoagulant activity of the above cell culture supernatants was measured using the mPT method.

Test [3] deals with TF mRNA expression in PMNs. The test is described as follows: real time RT-PCR of TF mRNA in PMNs incubated with activated ESRD serum. Type of test: cell-based, human. The settings on record: FIG. 4B. As for the experimental part:
4: Involvement of the complement pathway in the procoagulant properties of ESRD serum. […] In contrast, both a selective C3aR antagonist (10 μM-30 min) and a non-active linear analogue of compstatin had no effect on mPT values (bars 6, 7: 22.99±0.26 and 24.16±0.23, respectively; p: n.s. vs. bar 3).
as §2
RNA extraction, RT & relative quantitative real-time PCR analysis. […] In order to quantify the relative expression level of the two TF isoforms with coagulant properties [(full-length TF (referred to hereafter as ‘TF’) and alternative spliced TF (asTF)], isoform specific real-time PCR was performed. In each sample TF, asTF and GAPDH mRNA sequence-specific primers and probes for detection were applied. The 2^−DDCT method was used for quantification of the target gene expression.

The subject of test [4] is complement activation (C3b generation). The test is described as follows: C3b generation ELISA in plasma incubated with hemodialysis filter fibers. The test is classed as biochemical. The settings on record: in words; FIG. 5A; plasma with 15 mg fibers, over time, two concentrations. As for the experimental part:
as §1, with “Inhibitions with compstatin or C5aR antagonist, in both pre-treated sera, elucidated that the observed TF-dependent procoagulant activity was complement mediated (bars 4: 29.60±0.57, 5: 29.15±0.49 & 7: 26.85±0.21, 8: 26.05±0.35, p<0.01 compared to bars 3 and 6, respectively).” left out

For test [5], the system named is CD11b on blood neutrophils. The test is described as follows: hemodialysis simulation with whole blood: flow cytometry of CD11b on blood neutrophils. As to conditions: in words; 40 uM in whole blood circuit; FIG. 7B. The test is classed as cell-based, human. The text has this: (§3) FIG. 7. Complement activation during hemodialysis simulation is reduced or prevented by a compstatin analog. […] A: ELISA detection of complement activation fragment C3b using a C3-9 mAB. B: Detection of cellular cascade activation by flow cytometry after surface staining of blood neutrophils for CD11b. C: Detection of coagulation cascade activation by flow cytometry after intracellular staining of blood neutrophils for tissue factor (TF).
(§4) Whole blood was collected from healthy volunteers. […] All experiments were started within 30 min after blood collection.
(§5) To minimize the blood volume needed, HPH Junior polysulfone dialyzers (Minntech Corporation) were used. Standard bloodline components served as tubing system (Arterial & venous blood lines, Set a/v for Fresenius 2008/4008, HMC Premedical S.p.A., Italy). […]
(§6) To examine the activation of crucial pathways involved in the interaction of blood with the artificial surface of the dialyzer, complement, coagulation and neutrophil activation were analyzed. Briefly, complement activation was measured in plasma using a monoclonal antibody C3-9 (2 ug/ml), which recognizes a neoantigen that is exposed in C3(H2O), C3b and C3c but not in native C3. Neutrophil activation was assessed using flow cytometry after surface staining of CD11b (PE Mouse Anti-human CD11b/Mac-1, Cat. No 555388, BD Pharmigen). […]

For test [6], the system named is complement activation (C3b). The test is described as follows: hemodialysis simulation with whole blood: ELISA of C3 cleavage products (C3-9 mAb) in plasma. Type of test: biochemical, human. The settings on record: in words; 40 uM in whole blood circuit; FIG. 7A.
Excerpt: as §3, §4, §5, §6

Test [7] deals with tissue factor (TF) in blood neutrophils. The test is described as follows: hemodialysis simulation with whole blood: flow cytometry of intracellular tissue factor in blood neutrophils. The test is classed as cell-based, human. The settings on record: in words; 40 uM in whole blood circuit; FIG. 7C.
Excerpt: as §3, §4, §5, §6

Where [8] appears, read: PMNs preincubated with receptor antagonist (10 μM-30 min), then ESRD serum of 15 to 30 min of hemodialysis, no antagonist bar 3: 22.96±0.22, control bar 1: 31.96±0.21.

Where no end group is shown, it is not given here.

Turning to `NC(N)=NCCC[C@H](NC(=O)COCC(c1ccccc1)c1ccccc1)C(=O)O` [C3aR antagonist, SB-290152], the “effect on procoagulant activity induced by filter-fiber treated serum in neutrophil supernatants” value in test [1] (in words, FIG. 5B/5C) was “no effect on the procoagulant activity”. This compound registered a mPT values in test [2] (setting [8]) of 22.99±0.26. For the same compound, the “effect on procoagulant activity (mPT) induced by ESRD serum in PMN supernatants” value in test [2] is “did not affect the mPT values”.
Consider “Acetyl-Phe-[Orn-Pro-D-cyclohexylalanine-Trp-Arg] (FXPXWR; non-natural residues; cyclised or stapled) [C5aR antagonist]”, for which the mPT in test [1] (healthy serum preincubated 60 min with filter fibers, without inhibitor bar 3: 25.65±0.78) is on record as 29.15±0.49; in test [1] (predialysis ESRD serum preincubated 60 min with filter fibers, without inhibitor bar 6: 20.06±0.35), 26.05±0.35. In test [2] (setting [8]), this compound displayed a mPT values of 31.65±0.28. Also, in test [2], the “effect on procoagulant activity (mPT) induced by ESRD serum in PMN supernatants” value is given as “abrogated the observed procoagulant activity”. Also, the “average DCt of TF mRNA” value in test [3] (PMNs incubated with activated serum bar 1: 7.92±0.29) worked out at 9.02±0.62. Moreover, the “fold decrease of TF mRNA expression” value in test [3] (vs. PMNs incubated with activated serum (bar 1)) is 2.14 fold. In addition, the “effect on TF expression in PMNs (2^−DDCT analysis)” value in test [3] (in words) is “inhibited the stimulation effect”.
Turning to “IAVWQDWGAHRTAT-NH2 [non-active linear analogue of compstatin, reference compound]”, the “inhibition of complement activation induced by hemodialysis biomaterials (C3b generation)” value in test [4] is on record as “not inhibited”. This compound also had a mPT values in test [2] (ESRD serum taken at 15 to 30 min of hemodialysis treated with peptide (15 μM-30 min), healthy donor's PMNs (N=6), untreated serum bar 3: 22.96±0.22, control bar 1: 31.96±0.21) of 24.16±0.23.
Consider “I[CV^(1−Me)WQDWGAHRC]I—NH2 [compstatin analog 4[1MeW]]”, for which the “effect on cellular activation (CD11b surface staining of neutrophils)” value in test [5] was “attenuated”. In test [6], the “effect on time-dependent complement activation (C3 cleavage products in plasma)” value was “abrogated this activation”. In test [7], the “effect on coagulation cascade activation (intracellular TF in neutrophils)” value is “attenuated”.
